Measured values taken from the supplement of paper PMC10307832.

Tests used:
Experiment in all cases: relative viability (nuclei count vs DMSO), 5 days (fraction); higher = more cells survive
[1] = compound: COc1cc2nc(N3CCCN(C)CC3)nc(NC3CCN(Cc4ccccc4)CC3)c2cc1OC + COc1cc2c(Oc3ccc(NC(=O)C4(C(=O)Nc5ccc(F)cc5)CC4)cc3F)ccnc2cc1OCCCN1CCOCC1 [Foretinib] (partner 0.25 µM)
Summary of the method: (§1)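 Relative viability is defined as nuclei in treated wells over nuclei in vehicle wells. Duplicate plates were run and medians reported. Lung cancer cell lines in 1536-well plates were dosed by pin tool one day after seeding, with one drug or with a fixed anchor-drug dose plus five library-drug doses (not always all listed) in √10 steps, and nuclei were counted after 5 days.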

[2] = compound: COc1cc2nc(N3CCCN(C)CC3)nc(NC3CCN(Cc4ccccc4)CC3)c2cc1OC + C[C@@H](Oc1cc(-c2cnn(C3CCNCC3)c2)cnc1N)c1c(Cl)ccc(F)c1Cl [Crizotinib] (partner 1 µM)
Summary of the method: as §1

AZD6482 + Trametinib = compound: Cc1cc([C@@H](C)Nc2ccccc2C(=O)O)c2nc(N3CCOCC3)cc(=O)n2c1 [AZD6482] + CC(=O)Nc1cccc(-n2c(=O)n(C3CC3)c(=O)c3c(Nc4ccc(I)cc4F)n(C)c(=O)c(C)c32)c1 [Trametinib] (partner 0.02 µM)
Summary of the method: as §1

AZD6482 + Pictilisib = compound: Cc1cc([C@@H](C)Nc2ccccc2C(=O)O)c2nc(N3CCOCC3)cc(=O)n2c1 [AZD6482] + CS(=O)(=O)N1CCN(Cc2cc3nc(-c4cccc5[nH]ncc45)nc(N4CCOCC4)c3s2)CC1 [Pictilisib] (partner 1 µM)
Summary of the method: as §1

| Cell Line | relative viability ([1]; first compound 0.2 µM) | relative viability ([1]; first compound 0.6325 µM) | relative viability ([1]; first compound 2 µM) | relative viability ([1]; first compound 6.325 µM) | relative viability ([2]; first compound 0.2 µM) | relative viability ([2]; first compound 0.6325 µM) | relative viability ([2]; first compound 2 µM) | relative viability ([2]; first compound 6.325 µM) | relative viability (AZD6482 + Trametinib; first compound 0.08 µM) | relative viability (AZD6482 + Trametinib; first compound 0.253 µM) | relative viability (AZD6482 + Trametinib; first compound 0.8 µM) | relative viability (AZD6482 + Trametinib; first compound 2.53 µM) | relative viability (AZD6482 + Trametinib; first compound 8 µM) | relative viability (AZD6482 + Pictilisib; first compound 0.08 µM) | relative viability (AZD6482 + Pictilisib; first compound 0.253 µM) | relative viability (AZD6482 + Pictilisib; first compound 0.8 µM) | relative viability (AZD6482 + Pictilisib; first compound 2.53 µM) | relative viability (AZD6482 + Pictilisib; first compound 8 µM) |
| --- | --- | --- | --- | --- | --- | --- | --- | --- | --- | --- | --- | --- | --- | --- | --- | --- | --- | --- |
| NCI-H2087 | 1.12 | 0.99 | 1.31 | 1.25 | 0.929 | 0.646 | 0.777 | 0.716 | 0.176 | 0.162 | 0.133 | 0.132 | 0.183 | 0.758 | 0.723 | 0.91 | 0.611 | 0.889 |
| NCI-H1437 | 1.21 | 1.21 | 1.38 | 1.23 | 0.901 | 0.866 | 1.02 | 0.879 | 0.506 | 0.451 | 0.473 | 0.298 | 0.282 | 0.471 | 0.326 | 0.473 | 0.319 | 0.392 |
| ChaGo-K-1 | 1 | 0.929 | 0.941 | 0.907 | 1.18 | 1.11 | 1.14 | 1.09 | 0.922 | 0.874 | 0.878 | 0.803 | 0.857 | 0.765 | – | 1.15 | 1.01 | 0.977 |
| NCI-H650 | 1.06 | 0.948 | 1.12 | 0.965 | 0.734 | 0.589 | 0.841 | 0.733 | 0.958 | 0.906 | 0.805 | 0.663 | 0.711 | 0.931 | – | 0.908 | 0.541 | 0.813 |
| COR-L23 | 1.02 | 0.95 | 0.965 | 0.996 | 0.471 | 0.562 | 0.711 | 0.673 | 0.553 | 0.598 | 0.652 | 0.403 | 0.521 | 0.424 | 0.642 | 0.765 | 0.534 | 0.748 |
| COR-L 105 | 1.06 | 1.27 | 1.13 | 0.921 | 0.653 | 0.872 | 0.878 | 0.455 | 0.378 | 0.451 | 0.46 | 0.383 | 0.423 | 0.362 | 0.388 | 0.428 | 0.265 | 0.309 |
| LK-2 | 1.49 | 0.932 | 1.13 | 1.12 | 0.233 | 0.237 | 0.235 | 0.284 | 0.616 | 0.649 | 0.782 | 0.623 | 0.564 | 0.574 | – | 0.657 | 0.515 | 0.677 |
| 201T | 1.13 | 1.08 | 1.09 | 1.11 | 0.995 | 1.1 | 1.04 | 0.995 | 0.694 | 0.698 | 0.704 | 0.653 | 0.708 | 0.612 | 0.672 | 0.66 | 0.506 | 0.619 |
| NCI-H596 | 0.847 | 0.902 | 0.78 | 0.76 | 0.998 | 1.09 | 0.988 | 0.933 | 0.633 | 0.817 | 0.774 | 0.589 | 0.59 | 0.324 | 0.349 | 0.508 | 0.343 | 0.441 |
| H3255 | 0.857 | 0.812 | 0.981 | 1.05 | 0.781 | 0.894 | 1.03 | 0.856 | 0.604 | 0.551 | 0.575 | 0.402 | 0.367 | 0.461 | 0.434 | 0.453 | 0.305 | 0.47 |
| NCI-H647 | 1.15 | 0.952 | 1.35 | 0.918 | 1.01 | 0.973 | 0.968 | 0.466 | 0.32 | 0.367 | 0.333 | 0.254 | 0.209 | 0.358 | – | 0.38 | 0.249 | 0.408 |
| NCI-H2023 | 0.943 | 0.834 | 0.834 | 0.455 | 0.616 | 0.592 | 0.686 | 0.156 | 0.455 | 0.52 | 0.547 | 0.28 | 0.389 | 0.194 | 0.227 | 0.233 | 0.132 | 0.24 |
| NCI-H23 | 0.914 | 1.06 | 1.12 | 0.918 | 0.417 | 0.556 | 0.59 | 0.546 | 0.33 | 0.34 | 0.326 | 0.283 | 0.247 | 0.465 | 0.482 | 0.452 | 0.356 | 0.494 |
| NCI-H1944 | 0.882 | 0.867 | 0.862 | 0.807 | 1.12 | 1.07 | – | 1.17 | 0.38 | 0.375 | 0.426 | 0.351 | 0.335 | 0.314 | 0.342 | 0.366 | 0.246 | 0.33 |
| NCI-H520 | 0.683 | 0.633 | 0.622 | 0.598 | 0.714 | 0.664 | 0.852 | 0.214 | 0.567 | 0.463 | 0.433 | 0.201 | 0.26 | 0.254 | 0.197 | 0.27 | – | 0.316 |
| NCI-H460 | 0.922 | 0.952 | 1.03 | 0.993 | 0.833 | 0.878 | 0.893 | 0.313 | 0.138 | 0.106 | 0.146 | 0.0746 | 0.126 | 0.332 | 0.336 | 0.379 | 0.249 | 0.331 |
| EKVX | 0.754 | 0.814 | 0.986 | 0.794 | 1.08 | 0.887 | 1.05 | 0.9 | 0.293 | 0.291 | 0.286 | 0.242 | 0.203 | 0.378 | 0.326 | 0.441 | 0.235 | 0.467 |
| NCI-H358 | 0.701 | 0.824 | 0.81 | 0.566 | 0.495 | 0.642 | 0.903 | 0.639 | 0.133 | 0.131 | 0.12 | 0.117 | 0.113 | 0.274 | 0.386 | 0.276 | 0.202 | 0.358 |
| EPLC-272H | 0.783 | 0.723 | 0.847 | 0.686 | 0.811 | 0.915 | 1.05 | 0.785 | 0.251 | 0.213 | 0.27 | 0.234 | 0.194 | 0.325 | – | 0.297 | 0.287 | 0.333 |
| NCI-H2126 | 1.09 | 1.15 | 1.16 | 1.09 | 0.978 | 0.969 | 1.08 | 0.996 | 0.538 | 0.531 | 0.448 | 0.39 | 0.351 | 0.446 | 0.513 | 0.494 | 0.368 | 0.483 |
| LXF-289 | 0.936 | 0.993 | 0.984 | 1 | 0.812 | 0.8 | 0.824 | 0.786 | 0.681 | 0.77 | 0.801 | 0.717 | 0.609 | 0.66 | 0.736 | 0.739 | 0.638 | 0.745 |
| NCI-H2009 | 1.27 | 1.22 | 1.23 | 1.09 | 1.05 | 0.923 | 1.06 | 0.874 | 0.181 | 0.163 | 0.21 | 0.139 | 0.185 | 0.71 | 0.765 | 0.871 | 0.516 | 0.743 |
| NCI-H2405 | 1.05 | 1 | 1.06 | 1.07 | 0.869 | 0.825 | 0.927 | 0.894 | 0.459 | 0.559 | 0.531 | 0.365 | 0.395 | 0.31 | – | 0.559 | 0.381 | 0.386 |
| NCI-H1755 | 0.9 | 0.899 | 0.922 | 0.815 | 0.868 | 0.792 | 0.919 | 0.814 | 0.7 | 0.75 | 0.693 | 0.542 | 0.508 | 0.274 | 0.317 | 0.372 | 0.213 | 0.43 |
| HCC-78 | 0.57 | 0.578 | 0.58 | 0.533 | 0.333 | 0.377 | 0.332 | 0.352 | 0.547 | 0.496 | 0.57 | 0.345 | 0.417 | 0.218 | 0.186 | 0.184 | 0.182 | 0.214 |
| LOU-NH91 | 0.933 | 0.996 | 0.866 | 0.993 | 0.701 | 0.742 | 0.668 | 0.778 | 0.752 | 0.8 | 0.757 | 0.603 | 0.623 | 0.491 | 0.513 | 0.516 | 0.48 | 0.493 |
| NCI-H3122 | 0.915 | 1.02 | 0.955 | 0.968 | 0.256 | 0.305 | 0.293 | 0.267 | 0.211 | 0.23 | 0.184 | 0.181 | 0.161 | 0.644 | 0.572 | 0.642 | 0.407 | 0.636 |
| HCC-827 | 1.06 | 1.12 | 1.05 | 1.02 | 0.886 | 0.944 | 0.917 | 0.918 | 0.47 | 0.462 | 0.473 | 0.346 | 0.251 | 0.899 | 0.814 | 0.848 | 0.636 | 0.628 |
| SK-LU-1 | 0.839 | 0.79 | 0.783 | 0.653 | 0.858 | 0.943 | 0.92 | 0.536 | – | 0.418 | 0.495 | 0.399 | 0.453 | – | 0.535 | 0.622 | 0.461 | 0.448 |
| NCI-H1975 | 0.972 | 0.97 | 1 | 0.955 | 1.06 | 0.933 | 1.07 | 0.95 | 0.287 | 0.32 | 0.307 | 0.278 | 0.39 | 0.249 | 0.275 | 0.307 | 0.274 | 0.258 |
